From patent US20180192641A1, “Compositions and Methods for Preservation of Materials in the Amorphous State” (University of North Carolina Charlotte, priority 2014, published 2018)

Experiments:
[1] = moisture sorption (dynamic vapor sorption) and visual onset of crystallization in microwave-dried amorphous trehalose/salt samples at 61% RH; assay type: physicochemical
Description: A stock solution of 30.8 wt % trehalose (1.3 M), made in 1×TE buffer (1×Tris-EDTA buffer, pH 8.0, consisting of 10 mM Tris-HCl and 1 mM EDTA), was used to prepare solutions with varying amounts of phosphate salts (salt to trehalose molar ratio (R) is 1:4.8, 1:2 and 1:0.7). […] The end moisture content was measured below 0.105 gH2O/gdw which is known to produce a glass transition temperature higher than room temperature in the case of aqueous trehalose solutions. […] Specifically, in order to investigate moisture sorption in different trehalose/salt compositions at the 61% relative humidity, a closed environment with a stable relative humidity over the test duration was prepared. Supersaturated salt solutions of sodium bromide (prepared by following ASTM Protocol E 104-02) are capable of producing an environment with constant relative humidity of 61%. […] glass jars with rubber seals and clamps or Mason glass jars with screw caps are used as controlled humidity vessels (1 L, total height 159 mm, mouth Dia. 89 mm). The dynamic vapor sorption (DVS) method was used to monitor moisture sorption in the microwave-processed trehalose samples before and after crystallization (crystals were detected visually in samples). The moisture uptake in trehalose/salt samples were monitored to evaluate the effect of salts on end moisture content at time zero after microwave processing at 11% RH. Moisture sorption trends in samples over the experiment duration while held in the preservation jars (61% RH) were also evaluated. In this study, the gravimetric method was used to determine the dry weight of samples with different compositions (expressed in terms of mass of water per mass of solids). […] (below the crystallization temperature of Trehalose). The sample was then cooled in a desiccator containing phosphorus pentoxide (P2O5) which maintained the humidity near 0% RH. By recording the initial wet mass and the bake-out dry mass, the dry weight of each composition was obtained.

[2] = 25° C.; cited from earlier work
[3] = 37.5% RH; cited from earlier work
[4] = remained constant in RH environment of up to 92%; cited from earlier work

**Q.** For `OC[C@H]1O[C@H](O[C@H]2O[C@H](CO)[C@@H](O)[C@H](O)[C@H]2O)[C@H](O)[C@@H](O)[C@@H]1O` [pure trehalose, trehalose], which “water absorbed to enable the formation of trehalose dihydrate” value ([1]; 61% RH) is on record?
**A.** around 0.105 gH2O/g trehalose

**Q.** And the “moisture content level after crystallization” value ([1]; 61% RH, level the moisture content fell to after crystallization (pure trehalose: during the following 18 days))?
**A.** around 0.105 gH2O/gdw

**Q.** And the “time (day) of onset of sugar crystallization, observed visually” value ([1]; storage at 61% RH after microwave drying at 11% RH)?
**A.** 1 days

**Q.** What about the “RH at which isotherm exhibited a plateau (formation of trehalose dihydrate crystals)” value [2] of the same molecule?
**A.** ≥ 44 % RH

**Q.** And the “crystals on DSC thermograms” value [3]?
**A.** did not show any crystals

**Q.** What does the source list for `C[N+](C)(C)CCO.O=P([O-])(O)O` [pure choline dihydrogen phosphate, choline dihydrogen phosphate]?
**A.** hygroscopicity (moisture uptake) ([1]; 61% RH): very hygroscopic; crystallization observed ([1]; 61% RH, pure salt without trehalose): no crystallization

**Q.** For `OC[C@H]1O[C@H](O[C@H]2O[C@H](CO)[C@@H](O)[C@H](O)[C@H]2O)[C@H](O)[C@@H](O)[C@@H]1O` [trehalose dihydrate], which “moisture content of trehalose dihydrate” value [4] is on record?
**A.** 9.54%
